Reference: patent US9091804B2, “Polymer film, and optically-compensatory film, polarizer and liquid-crystal display device comprising the same” (FUJIFILM Corporation, priority 2004, dated 2015)

Legend:
physchem = details: DMSO/water=7/3 solvent system
[1] = solubility in 1.5 mol/liter aqueous NaOH at 55° C. (visual); details: 1.5 mol/liter NaOH at 55° C., visual observation

Row | Compound | pKa (physchem) | Solubility [1] [%]
1 | CCN(CC)S(=O)(=O)c1ccc(C)cc1 [A-42] | > 14 | <1
2 | OC(c1ccccc1)(c1ccccc1)c1ccccc1 [D-7] | > 14 | <1
3 | CN(C(=O)c1ccccc1)c1ccccc1 [FA-1] | > 14 | <1
4 | CCN(C(=O)C1CCCCC1)C1CCCCC1 [FB-2] | > 14 | <1
5 | O=C(C1CCCCC1)N(C1CCCCC1)C1CCCCC1 [FB-6] | > 14 | <1
